Test: recombinant UMI read abundance after kanamycin selection (control-corrected) (log10(CPM+1)); higher = more efficient recombination; extreme values may be limits of the assay; sequences stand for … in AGTGCAGAGAAAATCGGCCAGTTTTCTCTGCCTGCAGTCCGCATGCCGTGGGACCCCTTGGGTTCTAACCTGTTGCCTAGATTTATGCAGCGGACTGCCTTTCTCCCAAAGTGATAAACCGG…AGGTTGGTTTCACT; site = the 11-nt donor
Description: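 Pooled E. coli donor-specificity screen for the IS621 bridge recombinase. Each library member carries a reprogrammed 11-nt donor and a full-length LE bridge RNA expressed in cis from the natural promoter, with a paired donor-binding loop (8-nt LDG + 4-nt RDG) and a target-binding loop fixed to T5. It is co-electroporated with a T5 target plasmid; recombinase is induced with 0.07 mM IPTG and recombinants are selected on kanamycin. UMIs are counted as CPM, averaged over two biological replicates and corrected by the unselected control. Molecule = full bridge RNA written as DNA, built from the T5 scaffold: LDG = donor specificity nt 1-8, RDG = reverse complement of nt 8-11.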
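Note: IS621 bridge recombinase in Escherichia coli cells against a fixed T5 target plasmid.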

Sequence	recombinant UMI read abundance (log10)
ACCGGACCATGGACCGGTTTTCCCGGTAATCCGTATTTGGC (site ACCGGACCTGC)	0
ACCGGTCCATGGACCGGTTTTCCCGGTAATCCGTATTTGCA (site ACCGGTCCTTG)	0
ACCGGTCCATGGACCGGTTTTCCCGGTAATCCGTATTTGCA (site CCCGGTCCTTG)	0
ACCGGTCCATGGACCGGTTTTCCCGGTAATCCGTATTTGCA (site GCCGGTCCTTG)	0
ACCGGTCCATGGACCGGTTTTCCCGGTAATCCGTATTTGCA (site TCCGGTCCTTG)	0
ACCGGTCCATGGACCGGTTTTCCCGGTAATCCGTATTTGTT (site ACCGGTCCTAA)	0
ACCTACGCATGGACCGGTTTTCCCGGTAATCCGTATTTGAA (site ACCTACGCTTT)	1.09
ACCTAGACATGGACCGGTTTTCCCGGTAATCCGTATTTGAG (site ACCTAGACTCA)	0.226
ACCTAGACATGGACCGGTTTTCCCGGTAATCCGTATTTGAG (site ACCTAGACTCC)	0.241
ACCTAGACATGGACCGGTTTTCCCGGTAATCCGTATTTGAG (site ACCTAGACTCG)	0.352
ACCTAGACATGGACCGGTTTTCCCGGTAATCCGTATTTGAG (site ACCTAGACTCT)	1.17
ACCTAGACATGGACCGGTTTTCCCGGTAATCCGTATTTGGT (site ACCTAGACTAC)	0.0673
ACCTAGACATGGACCGGTTTTCCCGGTAATCCGTATTTGGT (site ACCTAGACTCC)	0.0175
ACCTAGACATGGACCGGTTTTCCCGGTAATCCGTATTTGGT (site ACCTAGACTGC)	0
ACCTAGACATGGACCGGTTTTCCCGGTAATCCGTATTTGGT (site ACCTAGACTTC)	0.0137
ACCTCAGCATGGACCGGTTTTCCCGGTAATCCGTATTTGGG (site AACTCAGCTCC)	0.0172
ACCTCAGCATGGACCGGTTTTCCCGGTAATCCGTATTTGGG (site ACCTCAGCTCC)	0.00849
ACCTCAGCATGGACCGGTTTTCCCGGTAATCCGTATTTGGG (site AGCTCAGCTCC)	0.0171
ACCTCAGCATGGACCGGTTTTCCCGGTAATCCGTATTTGGG (site ATCTCAGCTCC)	0.0291
ACCTCGTCATGGACCGGTTTTCCCGGTAATCCGTATTTGAA (site ACCTCGTCTTT)	0.5
ACCTGAACATGGACCGGTTTTCCCGGTAATCCGTATTTGGC (site ACCTGAACTGC)	1.39
ACCTTGCCATGGACCGGTTTTCCCGGTAATCCGTATTTGAA (site ACCTTGCCTTT)	0.00655
ACGAAAACATGGACCGGTTTTCCCGGTAATCCGTATTTGCA (site ACGAAAACTTG)	2.73
ACGAAAACATGGACCGGTTTTCCCGGTAATCCGTATTTGCA (site AGGAAGACTTG)	0
ACGAGAACATGGACCGGTTTTCCCGGTAATCCGTATTTGAG (site ACAAGAACTCT)	2.65
ACGAGAACATGGACCGGTTTTCCCGGTAATCCGTATTTGAG (site ACCAGAACTCT)	0.752

Sequence	recombinant UMI read abundance (log10)
ACGAGAACATGGACCGGTTTTCCCGGTAATCCGTATTTGAG (site ACGAGAACTCT)	2.59
ACGAGAACATGGACCGGTTTTCCCGGTAATCCGTATTTGAG (site ACTAGAACTCT)	0.873
ACGATTGCATGGACCGGTTTTCCCGGTAATCCGTATTTGGA (site ACGATTGCTTC)	1.97
ACGCACACATGGACCGGTTTTCCCGGTAATCCGTATTTGAA (site ACGCACACTTT)	2.08
ACGCATCCATGGACCGGTTTTCCCGGTAATCCGTATTTGAC (site ACACATCCTGT)	1.31
ACGCATCCATGGACCGGTTTTCCCGGTAATCCGTATTTGAC (site ACCCATCCTGT)	0
ACGCATCCATGGACCGGTTTTCCCGGTAATCCGTATTTGAC (site ACGCATCCTGT)	1.8
ACGCATCCATGGACCGGTTTTCCCGGTAATCCGTATTTGAC (site ACTCATCCTGT)	0
ACGCCCTCATGGACCGGTTTTCCCGGTAATCCGTATTTGGG (site ACGCCCTCTCC)	0.119
ACGCGCCCATGGACCGGTTTTCCCGGTAATCCGTATTTGGT (site ACGCGCCCTAC)	0.771
ACGCGGACATGGACCGGTTTTCCCGGTAATCCGTATTTGCA (site ACGCGGACTTG)	2.76
ACGCGGCCATGGACCGGTTTTCCCGGTAATCCGTATTTGCA (site ACGCGGCCTTG)	1.1
ACGCGTTCATGGACCGGTTTTCCCGGTAATCCGTATTTGCG (site ACGCGTTCTCG)	1.8
ACGGCATCATGGACCGGTTTTCCCGGTAATCCGTATTTGCA (site ACAGTATCTTG)	1.47
ACGGCATCATGGACCGGTTTTCCCGGTAATCCGTATTTGCA (site ACGGCATCTTG)	1.77
ACGGCTACATGGACCGGTTTTCCCGGTAATCCGTATTTGAC (site ACGGCTACTGT)	2.45
ACGGGACCATGGACCGGTTTTCCCGGTAATCCGTATTTGTA (site ACGGGACCTTA)	0.00398
ACGGGCACATGGACCGGTTTTCCCGGTAATCCGTATTTGGT (site ACGGGCACTAC)	0.805
ACGGTATCATGGACCGGTTTTCCCGGTAATCCGTATTTGCG (site ACAGTATCTTG)	2.27
ACGGTATCATGGACCGGTTTTCCCGGTAATCCGTATTTGCG (site ACGGTATCTCG)	3.15
ACGGTATCATGGACCGGTTTTCCCGGTAATCCGTATTTGGG (site ACGGTATCTCC)	1.62
ACGGTATCATGGACCGGTTTTCCCGGTAATCCGTATTTGTA (site ACAGTATCTTG)	2.09
ACGGTATCATGGACCGGTTTTCCCGGTAATCCGTATTTGTA (site ACGGTATCTTA)	3.09
ACGGTCACATGGACCGGTTTTCCCGGTAATCCGTATTTGTA (site ACGGTCACTTA)	1.59
ACGGTTTCATGGACCGGTTTTCCCGGTAATCCGTATTTGTG (site ACGGTTTCTCA)	2.4
ACGTACTCATGGACCGGTTTTCCCGGTAATCCGTATTTGGA (site ACGTACTCTTC)	2.95

From the supplement of paper PMC11208160
